Test results from publication PMC10958501, “4-Oxypiperidine Ethers as Multiple Targeting Ligands at Histamine H3 Receptors and Cholinesterases” (ACS Chemical Neuroscience, 2024).

Tests used:
[1] = target: T1, hH3R (Homo sapiens, UniProt Q9Y5N1); assay: hH3R radioligand displacement assay in membrane fractions of HEK-293 cells; assay type: binding; details: [3H]Nα-methylhistamine displacement, HEK-293 membranes; 95% CI in brackets
T1 construct: expressed in transfected cells; membrane fractions
Description: The compounds were tested against H3R by an ex vivo assay using isolated guinea pig ileum electrically stimulated to contraction, according to Vollinga et al.[47] The pA2-values were calculated according to Arunlakshana and Schild.[59] The radioligand-displacement assay was performed in membrane fractions of HEK-293 cells stably expressing hH3R. Cell cultivation and membrane preparation were performed according to Kottke et al.[48] The Ki values were calculated from the IC50 values using the Cheng–Prusoff equation.[60] The statistical calculations were performed on −log(Ki). The mean values and 95% confidence intervals were transformed to nanomolar concentrations. The inhibitory activities toward AChE and BuChE of novel ADS compounds were assessed in a spectrophotometric Ellman’s assay using electric eel AChE (eeAChE) and equine BuChE (eqBuChE).[57] Intracellular cAMP accumulation was measured with a homogeneous TR-FRET immunoassay using the LANCE Ultra cAMP kit (PerkinElmer) and HEK293 cells stably expressing the human histamine H3 receptor.[61] A more detailed description of the biological methods is presented in the Supporting Information. […]
considered statistically significant. The pA2 values were compared with the affinity of thioperamide (Sigma-Aldrich, St. Louis, MO, USA).
3.2. hH 3R radioligand displacement binding assay.
The radioligand displacement binding assay was performed in membrane fractions of HEK-293 cells stably expressing hH3R. Cell cultivation and membrane preparation was performed according to Kottke et al 6. For the radioligand displacement assay, radioactively labeled […]
assay volume was set to 200 µL. The compounds were tested in several appropriate concentrations between 100 µM and 0.1 nM. Pipetting was partly done by Freedom Evo® (Tecan). Pitolisant was used to determine non-specific binding at a concentration of 10 µM.
The membrane fraction (20 µg/well), test compounds, and radiolabeled ligand were incubated for 90 minutes at 25 °C while shaking. The bound radioligand was separated from the free radioligand by filtration through GF/B filters pre-treated with 0.3 % (m/v) polyethyleneimine using a cell harvester. Radioactivity was determined by liquid scintillation counting using a MicroBeta® Trilux (Perkin Elmer). The data was obtained in duplicates in at least three independent experiments. Non-specific binding was subtracted from the raw data to calculate specific binding values. The evaluation was performed with GraphPad Prism 6.1 (San Diego, CA, USA) using non-linear regression (one-site competition with a logarithmic scale). The Ki values were calculated from the IC50 values using the Cheng-Prusoff equation 7. The statistical calculations were performed on –log(Ki). […]

[2] = target: T2, human histamine H3 receptor (Homo sapiens, UniProt Q9Y5N1); assay: H3R intrinsic activity, cAMP accumulation assay in HEK293 cells; assay type: cell-based
T2 construct: expressed in transfected cells
T2 sequence (Q9Y5N1 whole entry): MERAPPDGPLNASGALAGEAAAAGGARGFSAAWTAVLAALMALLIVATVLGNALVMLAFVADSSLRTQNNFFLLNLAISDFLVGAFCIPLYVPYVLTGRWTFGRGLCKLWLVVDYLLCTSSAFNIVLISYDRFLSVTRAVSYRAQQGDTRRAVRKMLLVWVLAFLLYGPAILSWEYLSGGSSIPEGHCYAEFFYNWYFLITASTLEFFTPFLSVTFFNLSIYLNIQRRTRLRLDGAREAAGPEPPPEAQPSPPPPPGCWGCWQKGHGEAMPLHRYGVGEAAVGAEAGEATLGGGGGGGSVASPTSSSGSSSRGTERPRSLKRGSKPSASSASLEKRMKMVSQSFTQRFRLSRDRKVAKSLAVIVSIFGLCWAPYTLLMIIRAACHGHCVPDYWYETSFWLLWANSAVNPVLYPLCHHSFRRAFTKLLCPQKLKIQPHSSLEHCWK
Description: For the lead compound ADS031, intrinsic activity at H3R was tested in HEK293 cells expressing recombinant human receptors using a cAMP accumulation assay. […] […].
The compounds were tested against H3R by an ex vivo assay using isolated guinea pig ileum electrically stimulated to contraction, according to Vollinga et al.[47] The pA2-values were calculated according to Arunlakshana and Schild.[59] The radioligand-displacement assay was performed in membrane fractions of HEK-293 cells stably expressing hH3R. Cell cultivation and membrane preparation were performed according to Kottke et al.[48] The Ki values were calculated from the IC50 values using the Cheng–Prusoff equation.[60] The statistical calculations were performed on −log(Ki). The mean values and 95% confidence intervals were transformed to nanomolar concentrations. The inhibitory activities toward AChE and BuChE of novel ADS compounds were assessed in a spectrophotometric Ellman’s assay using electric eel AChE (eeAChE) and equine BuChE (eqBuChE).[57] Intracellular cAMP accumulation was measured with a homogeneous TR-FRET immunoassay using the LANCE Ultra cAMP kit (PerkinElmer) and HEK293 cells stably expressing the human histamine H3 receptor.[61] A more detailed description of the biological methods is presented in the Supporting Information.
3.4. H3R intrinsic activity.
Intracellular cAMP accumulation was measured with homogenous TR-FRET immunoassay, using LANCE Ultra cAMP kit (PerkinElmer) and HEK293 cells, stably expressing human histamine H3 receptor. An antagonist dose-response experiments were performed in a total assay volume of 20 μl in white 384-well plates, using 750 cells/well. […] TR-FRET signal was read on Spark microplate reader (Tecan Life Sciences). Measured TR-FRET, which was inversely proportional to cAMP quantities in the sample, was then normalized and presented as % of maximal cAMP accumulation in the assay determined for the forskolin alone-stimulated cells. […]

[3] = target: T3, eeAChE (Electrophorus electricus, UniProt O42275); assay: biochemical
T3 construct: purchased Sigma–Aldrich (Steinheim, Germany)
T3 sequence (O42275 24-633): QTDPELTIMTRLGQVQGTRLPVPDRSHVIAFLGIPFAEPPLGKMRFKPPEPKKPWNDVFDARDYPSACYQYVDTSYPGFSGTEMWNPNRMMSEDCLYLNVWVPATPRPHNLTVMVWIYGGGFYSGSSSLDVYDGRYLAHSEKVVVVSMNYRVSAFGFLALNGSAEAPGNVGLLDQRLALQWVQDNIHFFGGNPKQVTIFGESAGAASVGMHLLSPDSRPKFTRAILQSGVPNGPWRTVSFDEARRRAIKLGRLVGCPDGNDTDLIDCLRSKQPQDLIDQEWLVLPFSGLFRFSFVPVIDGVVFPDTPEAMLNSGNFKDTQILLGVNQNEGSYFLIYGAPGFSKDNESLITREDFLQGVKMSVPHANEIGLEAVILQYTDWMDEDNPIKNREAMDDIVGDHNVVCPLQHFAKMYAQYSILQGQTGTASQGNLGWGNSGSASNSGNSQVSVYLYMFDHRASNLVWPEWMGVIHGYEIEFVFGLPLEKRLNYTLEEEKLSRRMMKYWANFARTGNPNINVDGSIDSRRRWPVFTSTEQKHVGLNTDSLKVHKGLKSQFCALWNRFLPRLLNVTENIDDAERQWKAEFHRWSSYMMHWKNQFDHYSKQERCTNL

[4] = target: eqBuChE (Equus caballus, UniProt P81908); assay: biochemical
Chain of eqBuChE (P81908 whole entry): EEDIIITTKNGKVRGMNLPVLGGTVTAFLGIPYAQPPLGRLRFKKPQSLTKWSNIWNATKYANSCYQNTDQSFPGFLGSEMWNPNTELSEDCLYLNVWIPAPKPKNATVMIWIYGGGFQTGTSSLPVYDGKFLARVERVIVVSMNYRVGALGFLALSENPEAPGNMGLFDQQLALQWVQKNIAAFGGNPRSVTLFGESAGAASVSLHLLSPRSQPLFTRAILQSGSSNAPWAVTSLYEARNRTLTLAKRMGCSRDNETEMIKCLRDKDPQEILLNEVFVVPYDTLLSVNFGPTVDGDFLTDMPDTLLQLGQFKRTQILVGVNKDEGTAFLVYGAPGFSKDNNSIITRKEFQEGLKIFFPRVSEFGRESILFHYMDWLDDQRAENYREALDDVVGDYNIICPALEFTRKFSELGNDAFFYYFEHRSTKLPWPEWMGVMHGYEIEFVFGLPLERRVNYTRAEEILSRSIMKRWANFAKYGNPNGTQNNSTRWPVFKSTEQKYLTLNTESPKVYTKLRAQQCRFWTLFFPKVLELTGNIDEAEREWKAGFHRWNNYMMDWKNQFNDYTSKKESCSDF

T1 sequence (Q9Y5N1 whole entry): as the sequence (Q9Y5N1 whole entry) above

CCCN(C)Cc1ccc2cc(COC3CCN(Cc4ccccc4)CC3)ccc2c1 [ADS031, N-((6-(((1-Benzylpiperidin-4-yl)oxy)methyl)naphthalen-2-yl)methyl)-N-methylpropan-1-amine]
Ki [1]: 12.5 nM | Kb ([2]; Leff-Dougall variant of Cheng-Prusoff equation, read-out: Kb in H3R functional assay (cAMP accumulation)): 0.75 ± 0.15 nM | IC50 ([2]; against (R)-(−)-α-methylhistamine (30 nM), forskolin-stimulated HEK293 cells, read-out: IC50 in H3R functional assay (cAMP accumulation)): 41.7 ± 8.5 nM | H3R intrinsic activity ([2]; cAMP accumulation assay): H3R antagonist/inverse agonist | inhibition at 10 µM ([3]; read-out: eeAChE % inh. (10μM) ± SD): 84.2 ± 0.6% | IC50 ([3]; read-out: eeAChE IC50 (μM) ± sem): 1.54 ± 0.038 µM | inhibition at 10 µM ([4]; read-out: eqBuChE % inh. (10 μM) ± SD): 93.1 ± 0.4% | IC50 ([4]; read-out: eqBuChE IC50 [μM] ± sem): 1.35 ± 0.05 µM
